In publication PMC8945919 (Biomolecules, 2022):
“Also recorded” adds a separate entry of the source. Values belong to the substance of their own block, whether it stands above or below them. Where no end group is shown, it is not given here.

How the values were obtained:
trypsin [1] = target: T1, trypsin (Bos taurus, UniProt P00760); experiment: Trypsin digestion of RAD16-I followed by MALDI-TOF; assay type: in vitro ADME; parameters: key to Peak Presence in MALDI Spectra: peak presence (+); absence (−); conditions: for Peak Presence in MALDI Spectra: fragments expected after trypsin digestion of RAD16-I, peptide 100 µM in water (50 µM elsewhere in the source), trypsin 1000:1 peptide:enzyme molar ratio, 0-30 min, untreated and thermally treated (90 °C, 10 min) samples, duplicate
T1 sequence (P00760 24-246): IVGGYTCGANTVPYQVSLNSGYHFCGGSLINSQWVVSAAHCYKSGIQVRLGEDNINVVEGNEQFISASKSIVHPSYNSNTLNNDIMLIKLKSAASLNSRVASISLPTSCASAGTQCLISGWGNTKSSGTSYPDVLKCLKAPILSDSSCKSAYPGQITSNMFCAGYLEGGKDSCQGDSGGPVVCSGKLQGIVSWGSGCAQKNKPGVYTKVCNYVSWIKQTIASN
Method: Matrix-assisted laser desorption/ionization time of flight (MALDI-TOF) of trypsin-digested peptide samples was performed on a Bruker Ultraflex mass spectrometer, equipped with a pulsed nitrogen laser (337 nm). The peptide RAD16-I was diluted from a stock solution to a final concentration of 100 µM in water. Trypsin was added in a molar ratio 1000:1 (peptide:enzyme). Peptide samples were incubated with trypsin at 37 °C for 0, 1, 5, 10 and 30 min (performed in duplicate), and boiled in order to inactivate trypsin. Samples were prepared by mixing 0.5 µL of the peptide solution with 1 µL of the matrix solution (0.3 mg/mL, α-cyano-4-hydroxy-cinnamic acid in ethanol/acetone 2:1). The mixture was then spotted on an anchor-chip target (Bruker, Billerica, MA, USA) and allowed to evaporate to dryness at room temperature. Spectra were acquired in positive reflectron mode, using an acceleration voltage of 25 kV. Acquisition was performed in automated mode, using the Autoexecute software (Bruker, Billerica, MA, USA). A total of 1000 spectra, collected in 50-shot series at different positions of the sample spot were averaged for each sample. A mixture of standard peptides of known molecular mass in the range from 750–3500 Da (Bruker) was used for external calibration of the mass spectra.
To evaluate RAD16-I trypsin degradation, we incubated the peptide with trypsin with or without the previous denaturation step (incubation at 90 °C for 10 min). Thus, we incubated the RAD16-I samples with trypsin at 37 °C for different periods of time, and at each timepoint we mixed the reaction product with the α-cyano-4-hydroxy-cinnamic acid matrix and let the sample dry. Finally, samples were analyzed by MALDI. […] Furthermore, small peaks with m/z 1642 and 1558 could be detected, which may correspond to the peptide chain without one amino acid residue, an alanine and an arginine, respectively. These peptides are most likely impurities from the RAD16-I peptide synthesis.
We next aimed to determine if the structural changes observed by CD after denaturing RAD16-I (Figure 2) had any influence on proteolytic degradation. For that, peptide stock solution was diluted to 50 µM and then denatured or not for 10 min at 90 °C. Then, trypsin was added and incubated at 37 °C for different periods of time. The proteolytic reaction was inactivated by boiling the samples, and samples were finally mixed with the matrix and MALDI spectra were acquired. […] Moreover, no differences between untreated and thermally treated samples were detected.
We hypothesized that these unexpected results were due to an inefficient […] of trypsin when MALDI samples were prepared, in which trypsin was inactivated by boiling the samples. […] In this case, the samples were taken and immediately mixed with the MALDI-TOF matrix and evaporated on the sample holder.

trypsin [2] = experiment: trypsin in water, molar ratio 1000:1 (peptide:enzyme); untreated (non-denatured) RAD16-I; conditions: 37 °C, up to 30 min
trypsin [3] = experiment: trypsin in water, molar ratio 1000:1 (peptide:enzyme); RAD16-I denatured for 10 min at 90 °C before trypsin; conditions: 37 °C, up to 30 min
trypsin [4] = target: T1, trypsin; experiment: Trypsin degradation of RAD16-I nanofibers imaged by AFM; assay type: in vitro ADME; conditions: RAD16-I 100 µM in water, AFM on mica
Method: (§1) To image the thermal denaturation of the self-assembling peptide, RAD16-I samples were diluted in water from a stock solution (5.38 mM) to a final concentration of 100 µM. The thermal treatment consisted of subjecting the sample to a 90 °C incubation for 10 min. Then, 1 µL of sample was deposited onto freshly cleaved mica (Grade V5 mica, Structure Probe Inc., 01804-CA, West Chester, PA, USA), rinsed twice with Milli-Q water and observed under the AFM. For RAD16-I degradation experiments, samples were prepared as follows: RAD16-I was diluted in water from a stock solution at a final concentration of 100 µM. For thermal treated samples, a 10 min denaturation step (incubation at 90 °C) was performed prior to the enzymatic degradation. Samples were cooled at room temperature and trypsin (Merck, T1426) was added at a 1:1000 molar ratio (enzyme:peptide). Samples (1 µL) were taken at 10 and 60 min and were deposited onto freshly cleaved mica, rinsed twice with Milli-Q water, air dried and scanned under the AFM.
AFM images were obtained with a silicon-scanning probe (AC240-TS, Asylum Research) with a resonance frequency of 70 KHz, spring constant 2 N/m, tip curvature radius <10 nm and 240 μm length. Images were obtained with a Multimode AFM microscope (Nanoscope IIIa, Digital Instruments, Santa Barbara, CA, USA) operating in TappingMode. AFM scans were taken at a resolution of 512 × 512 pixels and produced topographic images of samples, whose brightness of features increased as a function of height. Typical scanning parameters were as follows: tapping frequency 75 kHz, RMS amplitude before engagement 1–1.5 V, setpoint 0.7–1 V, integral and proportional gains from 0.3–0.6 and 0.4–0.6, respectively, and scan rate 1.51 Hz.
Because MALDI spectra results indicated peptide proteolysis upon trypsin treatment (Figure 4), we expected to detect structural changes in the peptide using AFM analysis. RAD16-I samples incubated with trypsin were taken at 10 and 60 min and directly spotted into freshly cleaved mica. Then the mica was rinsed with deionized water, dried and observed under the AFM. […]

[5] = Thermal stability of secondary structure by circular dichroism; assay type: physicochemical
Method: Circular dichroism studies were performed on a JASCO-810 spectropolarimeter equipped with a Peltier system. RAD16-I samples (commercially available as PuraMatrix^TM, 354250, Corning, Corning, NY, USA) were diluted from a peptide stock solution (1% in water, 5.38 mM) in deionized water to a final concentration of 25, 50 and 75 µM and allowed to equilibrate at 20 or 90 °C for 10 min prior to analysis. CD data were acquired in a range from 195–240 nm at a band width of 1 nm and scan speed of 20 nm/s.
As a self-assembling peptide, RAD16-I is composed of repeating units of hydrophilic and hydrophobic amino acids, in which the charged residues alternate positive and negative charges, forming a β-sheet structure in aqueous solutions (Figure 1). This characteristic sequence is the one responsible for the self-assembly of the peptide molecules into a hydrogel, formed by a network of interweaving nanofibers from 10–20 nm in diameter and 50–200 nm in pore size and, thus, the applicability of the material as a scaffold in biomedical applications. Circular dichroism (CD) studies were performed to characterize the RAD16-I peptide structure. As a peptide with a β-sheet secondary structure, RAD16-I circular dichroism spectrum at room temperature (20 °C) presented a minimum molar ellipticity at 218 nm, which represents the β-sheet content, and a maximum of approximately 195 nm, which corresponds to the backbone twist of the peptide in the β-sheet configuration [38]. […] This spectrum was also maintained when the peptide was incubated at 40 °C.

[6] = Thermal denaturation of nanofibers imaged by AFM; assay type: physicochemical; conditions: 100 µM in water, AFM on mica
Method: as §1
AFM images were obtained with a silicon-scanning probe (AC240-TS, Asylum Research) with a resonance frequency of 70 KHz, spring constant 2 N/m, tip curvature radius <10 nm and 240 μm length. Images were obtained with a Multimode AFM microscope (Nanoscope IIIa, Digital Instruments, Santa Barbara, CA, USA) operating in TappingMode. […]

Substance: ADARADA-NH2 [theoretical trypsin digestion fragment of RAD16-I]
Peak Presence in MALDI Spectra (trypsin [1]; 37 °C, MALDI-TOF): +

Substance: ADARADARADAR [theoretical trypsin digestion fragment of RAD16-I]
Peak Presence in MALDI Spectra (trypsin [1]; 37 °C, MALDI-TOF): +

Substance: ADARADARADARADA-NH2 [theoretical trypsin digestion fragment of RAD16-I]
Peak Presence in MALDI Spectra (trypsin [1]; 37 °C, MALDI-TOF): −

Substance: AcN-RADARADAR [theoretical trypsin digestion fragment of RAD16-I]
Peak Presence in MALDI Spectra (trypsin [1]; 37 °C, MALDI-TOF): +

Substance: AcN-RADARADARADARADA-CONH2
fragment found (trypsin [2]): AcN-RADAR, 1 min; also recorded: AcN-RADARADAR, 1 min; also recorded: AcN-RADARADARADAR, 1 min; also recorded: ADAR, 1 min; also recorded: ADARADARADA-CONH2, 1 min; also recorded: ADARADA-CONH2, 1 min; also recorded: ADARADARADAR, 1 min; also recorded: ADARADAR, 1 min
fragment found (trypsin [3]): AcN-RADARADAR, 1 min; also recorded: AcN-RADARADARADAR, 1 min; also recorded: ADAR, 1 min; also recorded: ADARADARADA-CONH2, 1 min; also recorded: ADARADA-CONH2, 1 min; also recorded: ADARADARADAR, 1 min; also recorded: ADARADAR, 1 min; also recorded: AcN-RADAR, 1 min

Substance: AcN-RADARADARADARADA-CONH2 [RAD16-I, self-assembling amphiphilic peptide scaffold, commercially available as PuraMatrix (1% in water)]
Peak Presence in MALDI Spectra (trypsin [1]; 37 °C, MALDI-TOF): +
peak belonging to RAD16-I (m/z 1712) after incubation with trypsin (trypsin [1]; peptide 50 µM, trypsin, 37 °C, 1 min or 30 min, reaction stopped by boiling, MALDI-TOF, regardless of incubation time, no difference between untreated and thermally treated): significantly reduced
disappearance of RAD16-I peak (m/z 1713) upon trypsin treatment, denatured versus untreated samples (trypsin [1]; thermally denatured (90 °C, 10 min) samples compared with untreated, MALDI-TOF, Figure 4h): much faster
degradation of the peptide by trypsin (m/z 1713 peak) (trypsin [1]; untreated and thermally treated samples, taken and immediately mixed with MALDI-TOF matrix and evaporated (no boiling)): very fast
nanofibers after trypsin incubation, thermally treated samples, 10 min (trypsin [4]; 90 °C 10 min then cooled, trypsin 1:1000 enzyme:peptide, 10 min): only the presence of short fibers was detected
nanofibers after trypsin incubation, thermally treated samples, 60 min (trypsin [4]; 90 °C 10 min then cooled, trypsin 1:1000 enzyme:peptide, 60 min): most of the fibers had disappeared
nanofibers after trypsin incubation, untreated (RT) samples, 10 min to 60 min (trypsin [4]; trypsin 1:1000 enzyme:peptide molar ratio): slight change in nanofiber density
thermal denaturation of concentrated solutions by CD ([5]; 5 mg/mL in water, 2.9 mM, incubated at 20 or 90 °C for 10 min, then diluted to 25 µM to record spectra): thermal denaturalization was not observed
CD spectrum / secondary structure at 20 °C ([5]; 25, 50 and 75 µM in deionized water, 20 °C, 10 min equilibration, CD 195-240 nm): characteristic β-sheet spectrum
CD β-sheet spectrum at 40 °C ([5]; 25, 50 and 75 µM in deionized water, 40 °C): maintained
CD secondary structure at 90 °C, diluted samples ([5]; 25, 50 and 75 µM in deionized water, 90 °C, 10 min): structural transition from β-sheet to random coil
reversibility of the β-sheet to random coil shift ([5]; diluted samples after heating at 90 °C, kept at room temperature): irreversible at room temperature for at least a week
nanofiber network by AFM, thermally treated samples ([6]; 90 °C for 10 min): significantly less dense
nanofiber structure by AFM, untreated samples ([6]; room temperature): dense network of long nanofibers

Further lines, results first:

Peak Presence in MALDI Spectra (trypsin [1]; 37 °C, MALDI-TOF): +
Substance: ADAR [theoretical trypsin digestion fragment of RAD16-I]

Peak Presence in MALDI Spectra (trypsin [1]; 37 °C, MALDI-TOF): +
Substance: ADARADAR [theoretical trypsin digestion fragment of RAD16-I]

Peak Presence in MALDI Spectra (trypsin [1]; 37 °C, MALDI-TOF): +
Substance: ADARADARADA-NH2 [theoretical trypsin digestion fragment of RAD16-I]

Peak Presence in MALDI Spectra (trypsin [1]; 37 °C, MALDI-TOF): +
Substance: AcN-RADAR [theoretical trypsin digestion fragment of RAD16-I]

Peak Presence in MALDI Spectra (trypsin [1]; 37 °C, MALDI-TOF): +
Substance: AcN-RADARADARADAR [theoretical trypsin digestion fragment of RAD16-I]
